The results in this text go back to patent publication US20240299400A1, “Transcription Factor GLI1 Inhibitors and Uses Thereof” (University of Connecticut, priority 2023, published 2024).

In experiment [1] the test system is GLI1 mRNA expression. The experiment in a line: RT-qPCR GLI1 mRNA expression in OHCs-stimulated C3H10T1/2 MEFs. It counts as cell-based, mouse. Conditions: for % Gli1 Expression: C3H10T1/2 MEFs, 10 μM, relative to Hh-agonist OHCs (set as 100%); for IC50: Mus musculus. Here is the method:
(§1) ASZ001 and Sufu-KO cells were seeded in 96-well plates (10,000/well, 100 μL) and incubated overnight under growth conditions. On the second day, ‘growth’ media was removed and replaced by ‘assay’ media (100 μL). On the third day, cells were treated with a serial dilution of drugs or DMSO for 48 h. mRNA expression was determined through Taqman Fast Cells-to-CT Kit (#4399003) per the manufacturer's instructions. In brief, cells were washed with chilled PBS, then mixed with lysis solution containing DNase I and incubated at RT for 5 min. Stop solution was then added to quench the lysis reagents. cDNA was then synthesized through a BioRad MyCycler following addition of reverse transcriptase. Finally, the cDNA was amplified through an ABI 7500 system following addition of Taqman Fast Universal PCR Master Mix and Taqman Gene Expression Primer. Relative gene expression levels were computed by the ΔΔCt method. Values represent mRNA expression relative to DMSO control (set at 1.0). Data were analyzed using GraphPad Prism, and IC50 values are the mean±SEM for at least two separate experiments performed in triplicate. Primers used are as follows: mouse ActB (Mm00607939_s1); mouse GLI1 (Mm00494645_ml); mouse Gli2 (Mm01293117_ml); mouse Ptch1 (Mm00436026_ml); mouse Hhip (Mm00469580_ml).
C3H10T1/2 MEFs were seeded in 24-well plates (50,000/well, 500 μL). Following 24 h incubation, the ‘growth’ media was removed and replaced with ‘assay’ media (500 μL). On the third day, cells were treated with either DMSO, OHCs, or OHCs+drugs. Following a 24 h incubation, gene expression analysis was carried out following identical protocols as described above.
For orientation: In qPCR the cycle at which signal appears reflects the starting amount.

Experiment [2] concerns GLI1 mRNA expression. The experiment in a line: RT-qPCR GLI1 mRNA expression in Sufu-KO MEFs. It counts as cell-based, mouse.
The subject of experiment [3] is GLI1 mRNA expression. Nature of the experiment: RT-qPCR GLI1 mRNA expression in ASZ001 BCC cells. It counts as cell-based, mouse.
Experiment [4] deals with T1, GLI1-ZFD (Homo sapiens, UniProt P08151).
T1 construct: GLI1-ZFD Expression and Purification; made in house
T1 sequence (P08151 234-388 limits assumed): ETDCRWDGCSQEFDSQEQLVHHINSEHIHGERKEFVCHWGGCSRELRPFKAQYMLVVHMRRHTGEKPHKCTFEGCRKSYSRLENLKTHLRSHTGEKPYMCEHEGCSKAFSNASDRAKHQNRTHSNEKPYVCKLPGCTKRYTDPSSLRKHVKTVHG
Nature of the experiment: Microscale thermophoresis (MST) binding to GLI1-ZFD. Here is the method: The protein expression and purification experiments followed the previous reported procedures [C. A. Maschinot, et al., Synthesis and evaluation of third generation vitamin D3 analogues as inhibitors of hedgehog signaling. Euro. J. Med. Chem. 162 (2019) 495-506].
GLI1 protein labeling was performed through the Monolith Protein Labeling Kit RED-NHS 2nd Generation (Nanotemper #MO-LO11) per the manufacturer's instructions. Briefly, GLI1 (100 μg, 1 mg/mL) underwent buffer exchange to remove incompatible ingredients like Tris or DTT. Proteins in the Labeling Buffer were incubated with freshly prepared dye (˜3-fold excess of dye) for 30 min at RT in the dark. Unreacted ‘free’ dye was removed by a gel-filtration column. Protein concentration and degree-of-labeling were calculated by measuring absorption at 280 nm and 650 nm. For each assay, 200 nM GLI1 in MST Buffer was mixed with compound dilution in DMSO (DMSO<5%, v/v). The mixture was then loaded to a capillary and the thermophoresis was subsequently determined through Monolith NT.115 station. Results were analyzed by MO.Affinity Analysis software and visualized by Graphpad Prism. MST Buffer: 50 mM HEPES, pH 8.3, 100 mM NaCl.
Background: MST reads how a fluorescent partner responds to local heating, with and without ligand.

In experiment [5] the test system is ASZ001 cells. The experiment in a line: MTS anti-proliferative assay in ASZ001 cells. The settings on record: Table 5, 48 h, Ave ± SEM. The class given is cell-based, murine. (In general: Formazan colour is commonly taken as a measure of viable cells.)
Experiment [6] concerns DAOY (MB). Nature of the experiment: MTS anti-proliferative assay in DAOY cells. It counts as cell-based. Conditions: Table 8, 48 h, mean ± SEM. Here is the method:
(§2) Cell viability was assessed by MTS proliferation assay kit (Promega) per manufacturer's protocol. Briefly, 2×10^4 cells were plated in a 96-well plate in 100 μL growth medium to make the cell population at ˜80% confluence. After 24 h, 1 μL drug solution was added to each well. DMSO was used as vehicle compound. After 48 h incubation (37° C., 5% CO2), 20 μL of freshly prepared 3-(4,5-dimethylthiazol-2-yl)-5-(3-carboxymethoxyphenyl)-2-(4-sulfophenyl)-2H-tetrazolium (MTS)/phenazine methosulfate (PMS) solution was added to each well, and the plate was returned to the incubator for 1 h. Absorbance at 490 nm was recorded, and the result was analyzed by GraphPad Prism 5. GI50 values represent mean±SEM for at least two separate experiments performed in triplicate.

Experiment [7] deals with PANC-1 (pancreatic). Nature of the experiment: MTS anti-proliferative assay in PANC-1 cells. It counts as cell-based. The settings on record: Table 8, 48 h, mean ± SEM. Here is the method: as §2
Experiment [8] concerns Gli2 mRNA expression. The experiment in a line: RT-qPCR Gli2 mRNA expression in ASZ001 cells. It counts as cell-based, mouse. The settings on record: 10 μM. Here is the method: as §1
Experiment [9] has as its system Ptch1 mRNA expression. Nature of the experiment: RT-qPCR Ptch1 mRNA expression in ASZ001 cells. It counts as cell-based, mouse. Conditions: FIG. 4A. As to the method: as §1
Experiment [10] has as its system GLI1 protein levels. Nature of the experiment: Western blot GLI1 protein expression in ASZ001 cells. The class given is cell-based, murine. The settings on record: 25 μM. Here is the method:
(§3) ASZ001 cells were plated as described above and treated with drugs or vehicle control. Following incubation, cells were washed with chilled PBS and lysed with RIPA buffer containing […] PMSF protease inhibitor (Thermo Scientific #26978). Supernatant was collected following 15 min centrifugation at 12,000 rpm and 4° C. Protein concentrations from cell extracts were determined through the BCA kit (Pierce #23228) per the manufacturer's instructions. Proteins from either cell lysate or cell-free biochemical assay were then loaded on 12% SDS-PAGE. Following electrophoresis, proteins were transferred onto nitrocellulose membrane at 100 V for 120 min at 4° C. On a clean tray with constant gentle shaking, the membrane was sequentially submerged in 5% BSA for 1 h, and incubated with the primary antibody indicated overnight at 4° C. After washes with TBST, the appropriate secondary antibody was added to the tray for a 2 h incubation at RT. Chemiluminescent detection on film was visualized using ECL reagents (BioRad #1705060) and subsequently quantitated using Image J (http://imagej.nih.gov). Primary antibodies were used at 1:2000 dilution and are as follows: GLI1 (#MA5-32553); Gli2 (#PA5-79314); β-Actin (#PA1-16889). Secondary antibody (Goat anti-Rabbit, #32460) was used at a 1:5000 dilution. All antibodies were purchased from Invitrogen.

In experiment [11] the test system is GLI2 protein expression. The experiment in a line: Western blot GLI2 protein expression in ASZ001 cells. Conditions: 25 μM. The class given is cell-based, murine. Here is the method:
as §3

Experiment [12] concerns Hhip mRNA expression. Nature of the experiment: RT-qPCR Hhip mRNA expression in ASZ001 cells. The settings on record: 10 μM, FIG. 4A. It counts as cell-based, mouse. As to the method: as §1

In the case of `CCN(CC)c1ccc(C(Nc2ccccn2)c2ccc3ccc(C)nc3c2O)cc1` (centres unmarked) [Compound 1], the “% Gli1 Expression” value in [1] (mean ± SEM) was 5.9 ± 0.5%. Besides, the IC50 in [1] (C3H 10T1/2, Table 2, mean ± SEM, read-out: GLI1 mRNA expression, IC50 C3H10T1/2) came out at 0.26 ± 0.16 µM; in experiment [1] (C3H 10T1/2, Table 4, racemates and enantiomers, mean ± SEM, read-out: RT-qPCR, IC50 C3H10T1/2), 0.26 ± 0.16 µM; in experiment [2] (Mus musculus, Table 2, mean ± SEM, read-out: GLI1 mRNA expression, IC50 Sufu-KO) it was 1.5 ± 0.5 µM; in experiment [2] (Mus musculus, Table 4, racemates and enantiomers, mean ± SEM, read-out: RT-qPCR, IC50 Sufu-KO) it was 1.5 ± 0.5 µM; in experiment [2] (Mus musculus, Table 5, GLI1 mRNA, Ave ± SEM, read-out: RT-qPCR, IC50 Sufu-KO), 1.5 ± 0.5 µM; in experiment [3] (Mus musculus, ASZ001, Table 2, mean ± SEM, read-out: GLI1 mRNA expression, IC50 ASZ001) it was 1.3 ± 0.7 µM. Besides, the IC50 turned out to be 1.3 ± 0.7 µM in experiment [3] (Mus musculus, ASZ001, Table 4, racemates and enantiomers, mean ± SEM, read-out: RT-qPCR, IC50 ASZ001); 1.3 ± 0.7 µM in experiment [3] (Mus musculus, ASZ001, Table 5, GLI1 mRNA, Ave ± SEM, read-out: RT-qPCR, IC50 ASZ001). In addition, the Kd – broadly, a measure of binding affinity in units of concentration – was determined as 13.4 ± 4 µM in experiment [4] (Table 2, mean ± SEM); 13.4 ± 4 µM in experiment [4] (Table 4, mean ± SEM); 13.8 ± 3.4 µM in [4] (Table 5, Ave ± SEM). For the same compound, the 50% growth inhibitory concentration (GI50) (usually the concentration that inhibits growth by half) in experiment [5] (Mus musculus, ASZ001) amounted to 13.8 ± 3.4 µM; in [6] (Homo sapiens, Daoy) it was 14.1 ± 2 µM; in experiment [7] (Homo sapiens, PANC-1), 21.1 ± 4.2 µM. Also, the “inhibition of Gli2 mRNA expression, rank (in words)” value in [8] is reported as “most active”. In addition, in experiment [9], the “Ptch1 mRNA expression (in words)” value is “significantly down-regulated”. For the same compound, the “GLI1 protein levels (in words)” value in experiment [10] is listed as “significantly down-regulated”. For the same compound, the “GLI2 protein expression (in words)” value in [11] was “significantly suppressed”.
Take `CN(C)c1ccccc1CN1CCCN(Cc2ccccc2N(C)C)C1c1ccncc1` [GANT61, reference compound]: in experiment [1] (mean ± SEM), the “% Gli1 Expression” value is listed as 72.4 ± 5.6%. Also, the IC50 came to 5.3 ± 1.4 µM in experiment [2] (Table 5, GLI1 mRNA, Ave ± SEM, read-out: RT-qPCR, IC50 Sufu-KO) and 11.1 ± 1.5 µM in experiment [3] (Table 5, GLI1 mRNA, Ave ± SEM, read-out: RT-qPCR, IC50 ASZ001). Further, the affinity in [4] (Table 5, Ave ± SEM), expressed as Kd, was 65.2 ± 15.2 µM. For the same compound, the concentration for 50% growth inhibition (GI50) in experiment [5] was 57.5 ± 14 µM; in experiment [6], 27.2 ± 3.6 µM; in experiment [7], 35.2 ± 7.5 µM. The “expression of Hhip mRNA (in words)” value in [12] is given as “more effective at reducing Hhip expression compared to GLI1”. For the same compound, in [10], the “GLI1 protein levels (in words)” value is reported as “significantly down-regulated”. The “GLI2 protein expression (in words)” value in experiment [11] is “inactive”.
